The text below walks through data of patent US9609868B2, “Alkoximino-substituted anthranilic acid diamides as pesticides” (BAYER CROPSCIENCE AKTIENGESELLSCHAFT, priority 2013, dated 2017).

For data set [1], the system named is Myzus persicae. Description: Myzus persicae - spray test (MYZUPE). It counts as in vivo. To be noted: application rate 100 g/ha, Chinese cabbage leaf disks. On the procedure: Myzus persicae—Spray Test (MYZUPE)
Solvent: 78 parts by weight of acetone • • 1.5 parts by weight of dimethylformamide
(§1) Emulsifier: 0.5 parts by weight of alkylaryl polyglycol ether
(§2) To produce a suitable active compound preparation, 1 part by weight of active compound is mixed with the stated amounts of solvent and emulsifier, and the concentrate is diluted with emulsifier-containing water to the desired concentration.
Disks of Chinese cabbage leaves (Brassica pekinensis) infested by all stages of the green peach aphid (Myzus persicae) are sprayed with an active compound preparation of the desired concentration.
After the desired period of time, the efficacy in % is determined. 100% means that all the aphids have been killed; 0% means that none of the aphids have been killed.

Data set [2] deals with Phaedon cochleariae. Description: Phaedon cochleariae - spray test (PHAECO). It counts as in vivo. The settings on record: application rate 100 g/ha, Chinese cabbage leaf disks. As to the method:
Phaedon cochleariae—Spray Test (PHAECO)
(§3) Solvent: 78.0 parts by weight of acetone • • 1.5 parts by weight of dimethylformamide
as §1, §2
After the desired period of time, the efficacy in % is determined. 100% means that all the beetle larvae have been killed; 0% means that no beetle larvae have been killed.

For data set [3], the system named is Spodoptera frugiperda. Description: Spodoptera frugiperda - spray test (SPODFR). It counts as in vivo. The settings on record: application rate 100 g/ha, maize leaf disks. On the procedure:
Spodoptera frugiperda—Spray Test (SPODFR)
as §3, §1, §2
Leaf disks of maize (Zea mays) are sprayed with an active compound preparation of the desired concentration and, after drying, populated with caterpillars of the armyworm (Spodoptera frugiperda).
After the desired period of time, the efficacy in % is determined. 100% means that all the caterpillars have been killed; 0% means that no caterpillars have been killed.

Data set [4] in a line: log P by HPLC on reversed-phase column (C18), EEC directive 79/831 Annex V.A8. To be noted: HPLC reversed-phase C18, 43° C., data refer to the E isomer. The format is physicochemical. On the procedure:
The log P values reported in the tables and Preparation Examples above were determined in accordance with EEC directive 79/831 Annex V.A8 by HPLC (High Performance Liquid Chromatography) using a reversed-phase column (C18). Temperature 43° C. The calibration is effected with unbranched alkan-2-ones (having 3 to 16 carbon atoms), for which the log P values are known.

Turning to `CCOc1cc(C(=O)Nc2c(C)cc(C=NOC)cc2C(=O)NNC(=O)OC)n(-c2ncccc2Cl)n1` (mixture of isomers) [A-34], the “efficacy (aphids killed)” value in data set [1] is listed as 90%. In data set [2], the “efficacy (beetle larvae killed)” value is listed as 100%. Moreover, the “efficacy (caterpillars killed)” value in data set [3] worked out at 100%. Also, in data set [4] (Table A), the log p was 2.26.
In the case of `CON=Cc1cc(C)c(NC(=O)c2cc(OC(C)C)nn2-c2ncccc2Cl)c(C(=O)NNC(=O)OC)c1` (mixture of isomers) [A-35], the “efficacy (aphids killed)” value in data set [1] came out at 90%. Moreover, in data set [2], the “efficacy (beetle larvae killed)” value is recorded as 100%. In data set [3], the “efficacy (caterpillars killed)” value was 100%. For the same compound, the log p in data set [4] (Table A) is 2.54.
Take `CON=Cc1cc(C)c(NC(=O)c2cc(CF)nn2-c2ncccc2Cl)c(C(=O)NNC(=O)OC)c1` (mixture of isomers) [A-44]: in data set [1], the “efficacy (aphids killed)” value is reported as 90%. Moreover, in data set [2], the “efficacy (beetle larvae killed)” value is 100%. The “efficacy (caterpillars killed)” value in data set [3] came to 100%. Moreover, the log p in data set [4] (Table A) worked out at 2.02.
Take `CON=Cc1cc(C)c(NC(=O)c2cc(Br)nn2-c2ncccc2Cl)c(C(=O)NN(C)C(=O)OC)c1` (mixture of isomers) [A-45]: in data set [1], the “efficacy (aphids killed)” value was 100%. For the same compound, in data set [2], the “efficacy (beetle larvae killed)” value stood at 100%. In addition, the “efficacy (caterpillars killed)” value in data set [3] was determined as 100%. The compound also had a log p in data set [4] (Table A) of 2.50.
Consider `CON=Cc1cc(C)c(NC(=O)c2cc(C(F)F)nn2-c2ncccc2Cl)c(C(=O)NN(C)C(=O)OC)c1` (mixture of isomers) [A-47], for which the “efficacy (aphids killed)” value in data set [1] amounted to 90%. Further, the “efficacy (beetle larvae killed)” value in data set [2] amounted to 100%. The “efficacy (caterpillars killed)” value in data set [3] is given as 100%. The compound also showed a log p in data set [4] (Table A) of 2.21.
With `CON=Cc1cc(C)c(NC(=O)c2cc(C(F)(F)F)nn2-c2ncccc2Cl)c(C(=O)N(C)NC(=O)OC)c1` (mixture of isomers) [A-48], the “efficacy (aphids killed)” value in data set [1] amounted to 100%. In data set [2], the “efficacy (beetle larvae killed)” value turned out to be 100%. Also, the “efficacy (caterpillars killed)” value in data set [3] is 100%. In data set [4] (Table A), this compound showed a log p of 3.00.
As to `CON=Cc1cc(C)c(NC(=O)c2cc(OC(F)F)nn2-c2ncccc2Cl)c(C(=O)NN(C)C(=O)OC)c1` (mixture of isomers) [A-49], the “efficacy (aphids killed)” value in data set [1] came out at 90%. In addition, the “efficacy (beetle larvae killed)” value in data set [2] is given as 100%. In addition, the “efficacy (caterpillars killed)” value in data set [3] is given as 100%. For the same compound, the log p in data set [4] (Table A) is 2.60.
For `CON=Cc1cc(C)c(NC(=O)c2cc(Br)nn2-c2ncccc2Cl)c(C(=O)NC2COC2)c1` (mixture of isomers) [B-03], the “efficacy (aphids killed)” value in data set [1] amounted to 100%. Further, the “efficacy (beetle larvae killed)” value in data set [2] is listed as 100%. For the same compound, in data set [3], the “efficacy (caterpillars killed)” value stood at 100%. For the same compound, the log p in data set [4] (Table B) was found to be 2.44.
For `CON=Cc1cc(C)c(NC(=O)c2cc(C(F)(F)F)nn2-c2ncccc2Cl)c(C(=O)NC2C[S+]([O-])C2)c1` (mixture of isomers) [B-05], in data set [1], the “efficacy (aphids killed)” value stood at 90%. The “efficacy (beetle larvae killed)” value in data set [2] was determined as 100%. Moreover, the “efficacy (caterpillars killed)” value in data set [3] came out at 100%. Moreover, the log p in data set [4] (Table B) turned out to be 2.51.
Take `CON=Cc1cc(C)c(NC(=O)c2cc(C(F)(F)F)nn2-c2ncccc2Cl)c(C(=O)NC2CSC2)c1` (mixture of isomers) [B-06]: the “efficacy (aphids killed)” value in data set [1] amounted to 90%. Besides, in data set [2], the “efficacy (beetle larvae killed)” value was found to be 100%. In addition, the “efficacy (caterpillars killed)” value in data set [3] is 100%. Moreover, the log p in data set [4] (Table B) came to 3.46.
`CON=Cc1cc(C)c(NC(=O)c2cc(OC)nn2-c2ncccc2Cl)c(C(=O)NC2COC2)c1` (mixture of isomers) [B-10]: in data set [1], the “efficacy (aphids killed)” value is 100%. The “efficacy (beetle larvae killed)” value in data set [2] was found to be 100%. The “efficacy (caterpillars killed)” value in data set [3] turned out to be 100%. Also, the log p in data set [4] (Table B) is 2.04.
On to `CON=Cc1cc(C)c(NC(=O)c2cc(C(F)F)nn2-c2ncccc2Cl)c(C(=O)NC2COC2)c1` (mixture of isomers) [B-11], for which the “efficacy (aphids killed)” value in data set [1] is 100%. The “efficacy (beetle larvae killed)” value in data set [2] is recorded as 100%. The “efficacy (caterpillars killed)” value in data set [3] is 100%. In addition, the log p in data set [4] (Table B) is recorded as 2.31.
